“And” between values parts separate entries of the source, which are not always exact repeats. Equal values may be shown once.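 Five compound concentrations were applied to cells in 96-well plates for 48 hours; endpoints were derived by simple linear interpolation of the resulting dose-response curve. Here, GI50 denotes the concentration required for 50% inhibition of growth. TGI denotes the concentration required for complete inhibition of growth.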
How the values were obtained:
Experiment in all cases: NCI-60 cell line screen, 48 h
U251 CNS = test system: U251 CNS
DU-145 prostate = test system: DU-145 prostate
T-47D breast = test system: T-47D breast
BT-549 breast = test system: BT-549 breast
NCI-H522 lung = test system: NCI-H522 lung
HOP-92 NSCLC = test system: HOP-92 NSCLC
SK-OV-3 ovarian = test system: SK-OV-3 ovarian
UACC-62 melanoma = test system: UACC-62 melanoma
LOX IMVI melanoma = test system: LOX IMVI melanoma
COLO 205 colon = test system: COLO 205 colon

SMILES | GI50 (U251 CNS) [µM] | TGI (U251 CNS) | GI50 (DU-145 prostate) [µM] | TGI (DU-145 prostate) | GI50 (T-47D breast) [µM] | TGI (T-47D breast) | GI50 (BT-549 breast) [µM] | TGI (BT-549 breast) | GI50 (NCI-H522 lung) [µM] | TGI (NCI-H522 lung) | GI50 (HOP-92 NSCLC) [µM] | TGI (HOP-92 NSCLC) | GI50 (SK-OV-3 ovarian) [µM] | TGI (SK-OV-3 ovarian) | GI50 (UACC-62 melanoma) [µM] | TGI (UACC-62 melanoma) | GI50 (LOX IMVI melanoma) [µM] | TGI (LOX IMVI melanoma) [µM] | GI50 (COLO 205 colon) [µM] | TGI (COLO 205 colon)
CCN1CCN(c2nc(NCCCNc3ccnc4cc(Cl)ccc34)c3ccccc3n2)CC1 | 2.66 | 7.17 µM | 3.05 | 13.2 µM | 1.87 | 5.5 µM | 3.45 | 13.6 µM | 2.92 | 6.14 µM | 1.78 | 4.64 µM | 2.98 | 9.23 µM | 1.87 | 3.58 µM | 1.61 | 3.13 | 1.66 | 3.46 µM
COc1cccc(/C=C/C(=O)c2cc3c(N)c(C(=O)Nc4ccccc4C)sc3nc2C)c1 | 0.892 | 1.81 µM | 1.32 | 4.08 µM | 1.15 | 3.63 µM | 1.5 | 5.83 µM | 1.07 | 3.38 µM | 0.823 | 2.72 µM | 5.03 | 38.8 µM | 0.905 | 2 µM | 0.875 | 1.59 | 2.02 | 7.61 µM
N/C(CC(=O)Nc1cc(C(F)(F)F)ccc1Cl)=N\O |  | > 100 µM |  | > 100 µM |  | > 100 µM |  | > 100 µM |  | > 100 µM |  | > 100 µM |  | > 100 µM |  | > 100 µM |  | > 100 |  | > 100 µM
O=C(CSc1nc2ccc([N+](=O)[O-])cc2[nH]1)Nc1ccc(F)c(Cl)c1 | 2.5 | 12.3 µM | 3.24 | 13.4 µM | 1.11 | 10.2 µM | 2.44 | 9.34 µM | 2.37 | 12.4 µM | 0.346 | 2.72 µM | 1.42 | 4.79 µM | 1.63 | 10.5 µM | 2.89 | 14 | 1.6 | 3.3 µM
CCOc1ccc(S(=O)(=O)/N=C2\C=C(SCC(=O)O)C(=O)c3ccccc32)cc1 | 3.1 | 9.23 µM | 2.04 | 5.86 µM | 2.72 | 7.18 µM | 4.66 | 15 µM | 2.53 | 6.63 µM | 2.61 | 5.21 µM | 15.2 | 29.7 µM | 1.99 | 3.8 µM | 2.31 | 10.2 | 3.68 | 14 µM
COc1c(C2CC(=O)Nc3c2cnn3Cc2ccco2)cc2c(c1OC)OCO2 (configuration not stated) | 0.499 | > 25.8 µM | 0.522 | 24.6 µM | 0.45 | > 100 µM | 1.1 | > 100 µM | 0.349 | 3.24 µM | 0.424 | 98 µM | 0.858 | > 24.9 µM |  | > 100 µM | 0.864 | > 100 | 0.332 | 2.86 µM
C=C1C(=O)O[C@H]2[C@H]1CC/C(CNC(=O)c1c[nH]c3ccc(F)cc13)=C\CC[C@@]1(C)O[C@@H]21 | 2.68 | 7.94 µM | 1.09 | 2.35 µM | 1.36 | 5.03 µM | 1.19 | 2.7 µM | 0.282 | 1.31 µM | 1.54 | 4.17 µM | 10.8 | 22.7 µM | 1.27 | 3.03 µM | 0.731 | 2.14 | 0.583 | 2.14 µM
C=CC(=O)N[C@H]1C=C(C)c2c(-c3cnc4ccccc4c3)c3c(N)ncnc3n2C1 | 21.4 | 68.2 µM | 8.05 | > 100 µM | 2.22 | > 100 µM | 12.5 | 41.9 µM | 0.699 | 20.4 µM | 2.46 | 15.7 µM | 0.171 | 4.2 µM | 8.05 | 24.8 µM | 7.16 | 23.5 | 15.4 | 43.8 µM
O=C(Nc1nc2ccccc2s1)OCC(F)(F)F | > 100 | > 100 µM | > 100 | > 100 µM | > 100 | > 100 µM | > 100 | > 100 µM | > 100 | > 100 µM | 41.2 | > 100 µM | > 100 | > 100 µM | > 100 | > 100 µM | > 100 | > 100 | > 100 | > 100 µM
O=C(NNc1nc2c(F)cccc2n2cccc12)c1cnccn1 | 0.306 | 29.2 µM | 0.657 | 24.9 µM | 0.509 | > 34.3 µM | 0.671 | 50.8 µM | 0.817 | 16.8 µM | 0.556 | 45.1 µM | 0.527 | 27.8 µM | 0.477 | 6.28 µM | 0.3 | 5.83 | 0.426 | > 33.4 µM
Brc1cccc(-c2cc(-c3ccc4c(c3)OCCO4)[nH]n2)c1 | 1.2 | 33.4 µM | 1.98 | 27 µM | 1.34 | 50.1 µM | 1.62 | 47.8 µM | 0.755 | 34.8 µM | 4.31 | 32.9 µM | 1.69 | 43.6 µM | 0.871 | 40.9 µM | 1.53 | 30.4 | 1.03 | 26 µM
COC1(C(=O)N2Cc3nc(Cl)nc(N[C@H](C)c4cc(N)cc(C(F)(F)F)c4)c3C2)CCOCC1 | 14.4 | 37.7 µM | 31.7 | > 100 µM | 20.8 | 83.5 µM | 12.4 | 28.2 µM | 9.23 | 55.2 µM | 0.356 | 21 µM | 17.7 | 58.5 µM | 13.8 | 27.7 µM | 15.6 | 29.2 | 18 | 33.8 µM
Cc1ccn2c3c(c(C(=O)O)c2c1)C(=O)c1ccccc1C3=O | 15.7 | > 100 µM | 1.68 | 3.18 µM | > 100 | > 100 µM | 3.9 | 53.6 µM | > 45.7 | > 100 µM | > 100 | > 100 µM | > 100 | > 100 µM | 2.44 | 9.13 µM | 4.36 | > 100 | 2.62 | 8.75 µM
CC(C)(C)OC(=O)NC(Cc1ccccc1)C(=O)OCN1C(=O)C2C3C=CC(C2C1=O)C1C2C(=O)N(COC(=O)C(Cc4ccccc4)NC(=O)OC(C)(C)C)C(=O)C2C31 (configuration not stated) |  | > 100 µM |  | > 100 µM |  | > 100 µM |  | 92.6 µM |  | 85 µM |  | > 100 µM |  | > 95.5 µM |  | > 100 µM |  | > 100 |  | 28.7 µM
C#Cc1cnc(=O)n(C2CC(O)C(CO)O2)c1 (configuration not stated) | > 100 | > 100 µM | > 100 | > 100 µM | > 100 | > 100 µM | > 100 | > 100 µM | > 100 | > 100 µM |  | > 43.2 µM | > 100 | > 100 µM | > 100 | > 100 µM | > 100 | > 100 | > 100 | > 100 µM
N#CC(=C1SCS1)[N+](=O)[O-] | 2.37 | 10.8 µM | 2.56 | 10.1 µM | 0.724 | 20.9 µM | 9.3 | 23 µM | 0.687 | 2.08 µM | 0.365 | 10.4 µM | 5.35 | 43.3 µM | 2.29 | 13.6 µM | 0.567 | 14.7 | 1.41 | 3.92 µM
O=C(CCN1CCN(c2cnc3ccccc3n2)CC1)c1csc2ccccc12 | 47.8 | > 100 µM | 29.5 | > 100 µM | 18.2 | 43.4 µM | 14.9 | 30 µM | 18.4 | 42.8 µM | 18.9 | 49.1 µM | > 100 | > 100 µM | 49.5 | > 100 µM | 26 | 70.1 | 24.9 | 59 µM
COc1ccc(C(=S)N2CCN(c3cccc(Cl)c3)CC2)cc1 | > 100 | > 100 µM | > 100 | > 100 µM | 65.8 | > 100 µM | > 100 | > 100 µM | 15.3 | > 100 µM | 17.2 | > 100 µM | > 100 | > 100 µM | 78.2 | > 100 µM | > 100 | > 100 | > 100 | > 100 µM
CN(C)CC(=O)N1CCC(c2ccc(NC(=O)c3ncc(C#N)[nH]3)c(C3=CCCCC3)c2)CC1 | 4.66 | 16.9 µM | 12 | 24.6 µM | 11.9 | 28.8 µM | 4.52 | 16.1 µM | 7.88 | 23.1 µM | 0.21 | 2.74 µM | 5.33 | 17.4 µM | 3.3 | 11.7 µM | 3.17 | 12.7 | 4.43 | 14.1 µM
Cc1nn(-c2ccc(F)cc2)c2ncnc(Nc3ccc(NC(=O)Nc4ccc(Cl)c(C(F)(F)F)c4)cc3)c12 | 1.49 | 3.62 µM | 3.17 | 11.7 µM | 1.73 | 5.27 µM | 2.39 | 8.48 µM | 1.74 | 4.42 µM | 1.73 | 4.59 µM | 3.8 | 14.5 µM | 2.65 | 11.3 µM | 1.96 | 4.48 | 1.87 | 3.95 µM
Fc1cccc(COc2ccc(Nc3ncncc3C#Cc3ccccc3)cc2Cl)c1 | > 25 | > 25 µM | > 25 | > 25 µM | 20 | > 25 µM | > 25 | > 25 µM | > 22.4 | > 25 µM | > 18.8 | > 25 µM | > 25 | > 25 µM | > 25 | > 25 µM | > 25 | > 25 | > 25 | > 25 µM
C[C@@H]1CC[C@@H]2[C@@H]1[C@H](OC(=O)/C=C/c1ccccc1)[C@]1(c3ccccc3)C[C@@H](OC(=O)CO)[C@@]2(C)O1 | 14.2 | 29.3 µM | 15.9 | 33.8 µM | 6.67 | 21.2 µM | 0.406 | 17.7 µM | 13.2 | 30 µM | 6.52 | 20.1 µM | 23.4 | 55.6 µM | 14.5 | 33.3 µM | 13.9 | 27.2 | 16.1 | 32.7 µM
N#Cc1c(NC(=O)c2cccc(C(F)(F)F)c2)sc2c1CCC(=O)C2 | 0.352 | 1.58 µM | 3.3 | > 100 µM | 0.297 | 1.97 µM | 0.419 | 2.06 µM | 0.315 | 1.65 µM | 1.02 | 3.06 µM | 2.3 | 6.19 µM | 0.495 | 2.14 µM | 0.369 | 1.68 | 0.289 | 0.809 µM
CC(=O)OCC1OC(O[C@@H]2C[C@H]3C(C)(C)[C@H](OC(C)=O)CC[C@]3(C)[C@H]3CCC4=C([C@@H](C)C[C@@H](O)[C@H](O)C(C)(C)O)CC[C@@]4(C)[C@@]32C)C(O)C(O)C1O (some centres not stated) |  | 28 µM | 17.8 | 31.8 µM | 16.5 | 30.3 µM | 15.4 | 28.7 µM | 13.2 | 27.2 µM | 14.6 | 27.9 µM | 17.9 | 32.1 µM | 12.6 | 25.1 µM | 12.5 | 25 | 16 | 30.2 µM
Clc1ccccc1C(c1ccccc1)(c1ccccc1)n1ccnc1 | 2.48 | 11.8 µM and 49.8 µM | 4.87 | 17.2 µM and 39.6 µM | 2.3 | 14.5 µM and 30.4 µM | 2.54 | 6.87 µM and 20.6 µM | 2.66 | 8.89 µM and 18.9 µM | 1.57 | 4.3 µM and 37.9 µM | 3.71 | 13.7 µM and 29.2 µM | 1.44 | 6.68 µM and 27.9 µM | 1.69 | 4.66 | 1.76 | 3.28 µM and 29 µM
